Measured values from publication PMC12024540, “Peptide-Based Regulation of TNF-α-Mediated Cytotoxicity” (Biomolecules, 2025).
Like-named read-outs stand apart in the source and are kept apart here. Where no end group is shown, it is not given here.

Legend:
TNF-α = conditions: peptide from T7 phage display library; cited from earlier work
Source text: Peptide-based TNF-α inhibition has garnered attention in recent years, as studies have shown that peptides may help treat inflammatory diseases. In a study conducted in 2023, a nine amino acid-long peptide targeting TNF-α was discovered using a T7 phage display library. […] OB1 also attenuated TNF-α-induced cell death based on morphological examination (Figure 8). […] Thus, C87 is used as a positive control in many TNF-α inhibitor studies.

L929 cells [1] = assay type: cell-based, mouse; conditions: 1 μM with TNF-α (1 ng/mL) and actinomycin D, microscopy
Procedure: (§1) In the TNF-α neutralization test, 3 × 10^4 cells in 100 μL were seeded into 96-well tissue culture plates and incubated at 37 °C in a 5% CO2 incubator for 24 ± 2 h. After incubation, cells were stimulated with 2 μg/mL actinomycin D and 1 ng/mL TNF-α in the presence of diluted concentrations of adalimumab and functional peptides ranging from 1 pM to 10 μM for 24 ± 2 h. […] TNF-α neutralizing activity was also examined by microscopy in a 24-well plate. Both the cytotoxicity effect and neutralizing activity of the OB1 peptide were visually examined by fluorescence microscopy (Zeiss AxioVert A, Oberkochen, Germany). OB1 and adalimumab were administered at a concentration of 1 μM with 1 ng/mL TNF-α.

[2] = system: TNF-α-induced L929 cell death; experiment: TNF-α neutralization test (TNF-α-induced cytotoxicity, MTT) on L929 cells; assay type: cell-based, mouse
Procedure: (§2) The TNF-α neutralizing activity of designed peptides and adalimumab molecules was compared with cell-based bioactivity assays. L929 cells were cultured in DMEM supplemented with 10% FBS and 1% P/S in a humidified 5% CO2 incubator at 37 °C [43].
as §1

rhTNF-α = rhTNF-α (Homo sapiens, UniProt P01375); experiment: Microscale thermophoresis (MST) binding to labeled rhTNF-α; conditions: labeled rhTNF-α 20 nM, PBS, mean ± SD of three replicates
Sequence of rhTNF-α (P01375 77-233 limits assumed): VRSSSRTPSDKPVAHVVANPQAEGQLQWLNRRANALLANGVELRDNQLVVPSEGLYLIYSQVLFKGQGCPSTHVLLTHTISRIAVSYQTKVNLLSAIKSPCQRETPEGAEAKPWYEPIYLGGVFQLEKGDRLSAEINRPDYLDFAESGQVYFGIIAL
Procedure: MST was performed using a Monolith NT.115 Pico instrument (NanoTemper Technologies, Munich, Germany). In this technique, thermophoresis applied by irradiation with an infrared (IR) laser diode disrupts a ligand-target binding interaction that has equilibrated. The concentration of fluorescent molecules can be altered by the direct movement of molecules within a temperature gradient. The effect on the fluorescence signal is monitored continuously over time.
Experiments were performed using the Monolith Protein Labeling Kit RED-NHS 2nd Generation and Monolith NT.115 Premium Capillaries at Pico-RED 80% excitation power and medium MST power with thermophoresis. Mixtures of labeled molecules and functional peptides or TNFR1 were prepared in PBS. Labeled molecules were maintained at 20 nM for the peptide binding experiments, and the ligand concentrations varied according to the molecule with 16 serial dilutions. The peptide-labeled molecule mixture was loaded into the glass capillaries after 20 min incubation in the dark. Results were analyzed using M.O. Affinity Analysis v.2.3 software.

L929 cells [3] = experiment: MTT cytotoxicity of peptides on L929 cells; assay type: cell-based, mouse; conditions: at 10,000 nM (10 μM)
Procedure: as §2
Cytotoxicity of peptides was determined using the 3-(4,5-dimethylthiazol-2-yl)-2,5 diphenyltetrazolium bromide (MTT) cell proliferation assay. Briefly, 3 × 10^4 cells in 100 μL were seeded into 96-well tissue culture plates and incubated at 37 °C in a 5% CO2 incubator for 24 ± 2 h. Peptide concentrations were diluted from 1 pM to 10 μM and measured in triplicate. The following kit protocol and absorbance were measured at 550 nm and 690 nm using a microplate reader (Gen5 Synergy HT BioTek, Winooski, VT, USA).

Substance | Kd (rhTNF-α) | survival rate in TNF-α neutralization ([2]; 2 h, 10000 nM) | further results
ACHAWAPTR [pep2, nine amino acid-long peptide targeting TNF-α from a T7 phage display library] |  |  | Kd (TNF-α): 5.14 µM
Adalimumab | 0.0211 ± 0.0036 nM |  | cell survival by morphology with TNF-α and actinomycin D (L929 cells [1]): enhanced cell survival; IC50 [2]: 3.85 nM; survival rate in TNF-α neutralization ([2]; L929 cells, 10,000 nM, 1 ng/mL TNF-α and actinomycin D): ~80%
KGGGSGGGSGGGSRKEMGQV-NH2 [OB2] | 46.7 nM | ~80% | 
KGGGSGGGSHIHDDLLRYYGW-NH2 [OB1] | 300 nM | ~80% | IC50 ([2]; mouse): 4.6 nM
KRWSRYFWVDMTGTR-NH2 [OB8] | 3890 ± 4540 nM |  | cytotoxicity (in words) (L929 cells [3]): non-toxic
